Values of other authors, collected in US20210170044A1, “SYSTEMS AND METHODS FOR LYSOSOME INDUCED IMMUNOGENIC CELL DEATH” (Antigenesis LLC, priority 2017, published 2021).

Tested on: advanced hepatocellular carcinoma
Details: patients with advanced hepatocellular carcinoma receiving 5-fluorouracil; pravastatin as well vs control group

## O=c1[nH]cc(F)c(=O)[nH]1 [5-fluoroucacil]
  median survival time: 9 months
